Experimental data as given in patent EP0005186A1, “3-Alkyl-5-(2-hydroxystyryl)-isoxazoles and process for their preparation” (BASF Aktiengesellschaft, priority 1978, dated 1979).

Key:
[1] = system: Isoproterenol--Tachycardie der narkotisierten Katze; test: beta-sympatholytic effect on isoproterenol tachycardia in the anaesthetised cat; assay type: in vivo; settings: for ß-Sympatholytische Wirkung R.W. (Relative Wirksamkeit): Propranolol = 1,00; for ED50: Felis catus, iv, read-out: ß-Sympatholytische Wirkung ED 50 %
Method: (§1) Die Applikation der getesteten Substanzen erfolgt 10 min vor Isoproterenol an Gruppen von 3 bis 5 Katzen pro Dosis. […] Blutdrucksenkende Wirkung an der. narkotisierten Ratte. Zur Testung der blutdrucksenkenden Wirkung erhalten Gruppen von 3 bis 5 männlichen Sprague-Dawley-Ratten (Gewicht: 230 - 280 g) in Urethan-Narkose (1,78 g/kg) i.p.) die Substanz intravenös appliziert. Die Messung des Blutdrucks in der A.carotis erfolgt über Statham-Transducer. Als ED 20 % wird die Dosis ermittelt, welche den mittleren Carotisdruck um 20 % senkt. • 3. Antihypertensive Wirkung an spontan hypertonen Ratten. Die Substanzen werden Gruppen von 8 männlichen spontan hypertonen Okamoto-Ratten (Gewicht: 280 - 350 g) oral appliziert. Vor und zwei Stunden nach der Applikation wird der systolische Blutdruck am Rattenschwanz unblutig mit Hilfe von Piezokristallaufnehmern gemessen. Als ED 20 % wird unter Berücksichtigung der Nerte unbehandelter Kontrolltiere die Dosis bestimmt, welche den systolischen Druck um 20 % senkt. • 4. […] Die Beobachtungsdauer beträgt 1 Woche. Die Berechnung der wirksamen Dosen (s. 1.-3.) erfolgte aus den linearen Beziehungen zwischen den Logarithmen der Dosen und der Wirkung mit Hilfe der Regressionsanalyse.

narkotisierten Ratte = test: blood-pressure-lowering effect in the anaesthetised rat; settings: for ED20: Rattus norvegicus, iv, read-out: Blutdrucksenkende Wirkung ED 20 %; for Tiere gestorben: 10 mg/kg, dead animals of 6; for Blutdrucksenkende Wirkung ED 20 %: Urethan-Narkose, dose lowering blood pressure by 20 %
Method: (§2) Die Applikation der getesteten Substanzen erfolgt 10 min vor Isoproterenol an Gruppen von 3 bis 5 Katzen pro Dosis. […] Blutdrucksenkende Wirkung an der. narkotisierten Ratte. Zur Testung der blutdrucksenkenden Wirkung erhalten Gruppen von 3 bis 5 männlichen Sprague-Dawley-Ratten (Gewicht: 230 - 280 g) in Urethan-Narkose (1,78 g/kg) i.p.) die Substanz intravenös appliziert. Die Messung des Blutdrucks in der A.carotis erfolgt über Statham-Transducer. Als ED 20 % wird die Dosis ermittelt, welche den mittleren Carotisdruck um 20 % senkt. • 3. Antihypertensive Wirkung an spontan hypertonen Ratten. Die Substanzen werden Gruppen von 8 männlichen spontan hypertonen Okamoto-Ratten (Gewicht: 280 - 350 g) oral appliziert. Vor und zwei Stunden nach der Applikation wird der systolische Blutdruck am Rattenschwanz unblutig mit Hilfe von Piezokristallaufnehmern gemessen. Als ED 20 % wird unter Berücksichtigung der Nerte unbehandelter Kontrolltiere die Dosis bestimmt, welche den systolischen Druck um 20 % senkt. • 4. Akute Toxizität an der Maus Zur Bestimmung der akuten Toxizität (LD 50) werden die Substanzen Gruppen von je 10 weiblichen NMRI-Mäusen (Gewicht: 19 - 20 g) intraperitoneal appliziert. Die Beobachtungsdauer beträgt 1 Woche. Die Berechnung der wirksamen Dosen (s. 1.-3.) erfolgte aus den linearen Beziehungen zwischen den Logarithmen der Dosen und der Wirkung mit Hilfe der Regressionsanalyse. Die LD 50 (4.) wurden mit Hilfe der Probit-Analyse bestimmt.

in vivo = settings: mouse, in vivo, ip
Method: as §1

[2] = system: spontan hypertonen Ratten; test: antihypertensive effect in spontaneously hypertensive rats; assay type: in vivo, Okamoto-Ratten; settings: spontan hypertone Ratten, oral
Method: as §2, with “Die LD 50 (4.) wurden mit Hilfe der Probit-Analyse bestimmt.” left out

Maus = test: in vivo; settings: Maus, i.p., observation 1 week; 10080 min
Method: as §1

| Compound | ß-Sympatholytische Wirkung R.W. (Relative Wirksamkeit) ([1]; Katze, i.v.) | ED20 (narkotisierten Ratte) [mg/kg] | LD50 at 168 h (in vivo) [mg/kg] | ED50 [1] [mg/kg] | Tiere gestorben (narkotisierten Ratte; Ratte, i.v.) [von 6] | Blutdrucksenkende Wirkung ED 20 % (narkotisierten Ratte; Ratte, i.v.) | also measured |
| --- | --- | --- | --- | --- | --- | --- | --- |
| CCc1cc(C=Cc2ccccc2OCC(O)CNC(C)(C)C)on1 (centres unmarked) [Verbindung 9, 3-Äthyl-5-[2-(2-hydroxy-3-tert.-butylaminopropoxy)-styryl]-isoxazol] | 6,1 | 0.93 | 84 |  |  |  |  |
| Cc1cc(C=Cc2ccccc2OCC(O)CNC(C)C)on1 (centres unmarked) [Verbindung 6, 3-Methyl-5-[2-(2-hydroxy-3-isopropyl-aminopropoxy)-styryl]-isoxazol] | 14,3 | 0.65 | 108 | 0.0077 |  |  |  |
| CC(C)NCC(O)COc1cccc2ccccc12 (centres unmarked) [Propranolol, reference compound] |  |  |  |  | 2 |  | Blutdrucksteigerung (narkotisierten Ratte; Ratte, i.v., bis 2,15 mg/kg): blutdrucksteigernd; Antihypertensive Wirkung ([2]; bis zu einer Dosis von 100 mg/kg): wirkungslos |
| Cc1cc(C=Cc2ccccc2OCC(O)CNC(C)(C)C)on1 (centres unmarked) [Verbindung 7, 3-Methyl-5-[2-(2-hydroxy-3-tert.-butylaminopropoxy)-styryl]-isoxazol] | 20,0 | 0.4 | 123 | 0.0055 | 1 | 0,40 mg/kg | ratio of the 10 mg/kg dose to the blood-pressure-lowering dose (0,4 mg/kg) (narkotisierten Ratte; Ratte, i.v.): 25 mal; ED20 ([2]; Rattus norvegicus, systolic pressure 2 h after dosing lowered by 20 %, read-out: Antihypertensive Wirkung ED 20 %): 14.5 mg/kg |
| C#CC(C)(C)NCC(O)COc1ccccc1C=Cc1cc(C)no1 (centres unmarked) [Verbindung 10] | 6,5 | 1 | 247 |  |  |  |  |
| 3-Äthyl-5-[2-(2-hydroxy-3-cyclopropylaminopropoxy)-styryl]-isoxazol [Verbindung 8] | 0,9 |  |  |  |  | 0,83 mg/kg | ß-sympatholytische Wirksamkeit compared with Propranolol [1]: etwa wirkungsgleich; ß-Sympatholytische Wirkung ED 50 % ([1]; Katze, Hexobarbital-Narkose, i.v., dose inhibiting the isoproterenol heart-rate increase by 50 %): 0,12 mg/kg; Letalität LD 50 (Maus): 95 mg/kg |
